Measured values from article PMC6270453, “One Lignanoid Compound and Four Triterpenoid Compounds with Anti-Inflammatory Activity from the Leaves of Elaeagnus oldhamii Maxim” (Molecules, 2013).
Values after ≈ are worked out from the molar mass of the structure shown. “Also recorded” adds a separate entry of the source.

What was measured:
[1] = tested on: RAW264.7 cells; assay: Cell viability (MTT) in the presence of LPS; type: cell-based, murine; settings: for Cell Viability (% of Control): RAW264.7, 100 ng/mL LPS, 24 h, MTT, mean ± S.D.
Protocol: (§1) A murine macrophage cell line RAW264.7 (BCRC No. 60001) was purchased from the Bioresources Collection and Research Center (BCRC, Hsinchu, Taiwan) of the Food Industry Research and Development Institute (Hsinchu, Taiwan). Cells were cultured in plastic dishes containing Dulbecco’s Modified Eagle Medium (DMEM, Sigma) supplemented with 10% fetal bovine serum (FBS, Sigma) in a CO2 incubator (5% CO2 in air) at 37 °C and subcultured every 3 days at a dilution of 1:5 using 0.05% trypsin-0.02% EDTA in Ca^2+-, Mg^2+-free phosphate-buffered saline (DPBS).
Cells (2 × 10^5) were cultured in 96-well plate containing DMEM supplemented with 10% FBS for 1 day to become nearly confluent. Then cells were cultured with compounds 1–5 in the presence of 100 ng/mL LPS (lipopolysaccharide) for 24 h. After that, the cells were washed twice with DPBS and incubated with 100 μL of 0.5 mg/mL MTT for 2 h at 37 °C testing for cell viability. The medium was then discarded and 100 μL dimethyl sulfoxide (DMSO) was added. After 30-min incubation, absorbance at 570 nm was read using a microplate reader (Molecular Devices, Sunnyvale, CA, USA).

[2] = tested on: LPS-induced NO production in macrophages (RAW264.7 cells); assay: Measurement of nitric oxide/nitrite (Griess reaction) in LPS-stimulated macrophages; type: cell-based, murine; settings: for NO Inhibition (% of Control) / No Level: LPS 100 ng/mL, 24 h, mean ± S.D.; for No Level: nitrite in medium, LPS alone 30.3 ± 2.2, in µM
Protocol: as §1
NO production was indirectly assessed by measuring the nitrite levels in the cultured media and serum determined by a colorimetric method based on the Griess reaction. The cells were incubated with different concentration of samples in the presence of LPS (100 ng/mL) at 37 °C for 24 h. Then, cells were dispensed into 96-well plates, and 100 μL of each supernatant was mixed with the same volume of Griess reagent (1% sulfanilamide, 0.1% naphthylethylenediamine dihydrochloride and 5% phosphoric acid) and incubated at room temperature for 10 min, the absorbance was measured at 540 nm with a Micro-Reader (Molecular Devices). By using sodium nitrite to generate a standard curve, the concentration of nitrite was measured form absorbance at 540 nm.
IC50 values were estimated using a non-linear regression algorithm (Sigma Plot 12.0; SPSS Inc. Chicago, IL, USA). Statistical evaluation was carried out by one-way ANOVA followed by Scheffe’s multiple range tests.

## COc1cc([C@H]2Oc3cc(/C=C\CO)ccc3O[C@@H]2C)ccc1O [Compound 1, isoamericanol B]
[1]; dose 2.5 μg/mL
  Cell Viability (% of Control): 100.6 ± 5.9 % of Control
[1]; dose 5 μg/mL
  Cell Viability (% of Control): 97.6 ± 4.3 % of Control
[1]; dose 10 μg/mL
  Cell Viability (% of Control): 90.7 ± 3.3 % of Control
[1]; dose 20 μg/mL
  Cell Viability (% of Control): 88.8 ± 2.6 % of Control
[1]; tested concentrations 2.5 to 20 μg/mL
  Change of cell viability (in words): did not significantly change cell viability; also recorded: did not change significantly cell viability
[2]; Mus musculus, RAW264.7, 24 h, LPS-stimulated RAW264.7 cells, non-linear regression, read-out: IC50 for inhibition of nitrite production
  IC50: ~10.3 µg/mL (≈ 31.4 µM)
[2]; dose 2.5 μg/mL
  NO Inhibition (% of Control): 42.0 ± 1.6 % of Control
  No Level: 17.6 ± 0.5
[2]; dose 5 μg/mL
  NO Inhibition (% of Control): 42.3 ± 2.6 % of Control
  No Level: 17.5 ± 08
[2]; dose 10 μg/mL
  NO Inhibition (% of Control): 49.7 ± 1.4 % of Control
  No Level: 15.2 ± 0.4
[2]; dose 20 μg/mL
  NO Inhibition (% of Control): 60.4 ± 1.3 % of Control
  No Level: 12.0 ± 0.4
